We go through eight molecules from patent publication US4246282A, “ω-Dialkylalkanoic acid derivatives used to induce antianoxic activity” (Labaz, priority 1979, dated 1981).

Data set [1] in a line: β-Mercaptopropionic acid seizure (protection against the tonic seizure). The format is in vivo, mice. The conditions noted are these: Mus musculus, 0.25 h. As for the experimental part:
β-Mercaptopropionic acid is an inhibitor of glutamate decarboxylase (G.A.D.), an enzyme which catalyses the transformation of glutamate into γ-aminobutyric acid (GABA). As a consequent of this, a decrease in the GABA lever occurs together with generalized tonico-clonic seizures 3 to 4 minutes after administration.
In the present test, β-mercaptopropionic acid was administered intraperitoneally to batches of 10 male mice, at a dose of 70 mg/kg, 30 minutes after oral administration of a dose of the compound to be studied. The percentage of animals protected against the tonic seizure was registered 15 minutes after administration of the β-mercaptopropionicacid.

Data set [2] in a line: rota rod test (neurotoxicity, coordination of movements on a turning rod).
Method: This test enables the animal's ability to coordinate its movements on a turning rod to be evaluated. […] (a) 15 min. after administration of 500 mg/kg by oral route:
Data set [3] in a line: Pentylenetetrazol seizure. Conditions: Mus musculus, 0.25 h. The format is in vivo, mice.
A short description of data set [4]: Anoxia in confined space (period of survival). The format is in vivo, mice. As for the experimental part: Batches of 15 male mice were treated with a dose of a compound to be studied. After that, each animal was placed in a hermetically sealed box of 200 cm^3. The animal was considered to be dead when it had stopped breathing.
The increase in the period of survival was then noted in % in comparison with the controls. […]

[5] abbreviates: 15 min. after administration of 500 mg/kg by oral route.
Where [6] appears, read: 30 min. after administration of 500 mg/kg by oral route.
The mark [7] stands for this setting: 15 min. after administration of 100 mg/kg by intraperitoneal route.
Setting [8] is: 30 min. after administration of 100 mg/kg by intraperitoneal route.

Structures are written as SMILES.

On to `CCCC(CCC)CC(=O)[O-].[Na+]`, for which the results for the ED50 in data set [1] (po) and in data set [3] (po) were 168 mg/kg and 95 mg/kg, respectively. In addition, the “% of failures” value in data set [2] (setting [5]) and in data set [2] (setting [6]) was 30% in each case.
Regarding `CCCC(CCC)C(N)=O` [di-n-propylacetamide], the “increase in survival time” value in data set [4] (50 mg/kg intraperitoneal) turned out to be 12%. For the same molecule, the “% of failures” value in data set [2] (15 minutes after administration of 170 mg/kg by oral route) worked out at 50%. In data set [3] (mice, oral route, registered 15 minutes after pentylenetetrazol, read-out: ED50), the ED50 was determined as 46 mg/kg.
For the molecule `CCCC(CCC)CCC(N)=O` [4-n-propyl-heptanamide, 4-n-Propyl-heptanamide], in data set [2] (setting [7]), the “% of failures” value is on record as 0%.
Same read-out and setting: with `CCCC(CCC)CCC(=O)O` [ONa, n = 1] the figure was 30%.
In the case of `CCCC(CCC)C(=O)[O-].[Na+]` [sodium di-n-propylacetate], the ED50 in data set [1] (po, an other comparative test, read-out: ED50) is 175 mg/kg. Also, in data set [4] (200 mg/kg intraperitoneal), the “increase in survival time” value was 32%.
Take `CCCC(CCC)CCCC(=O)O` [ONa, n = 2]: the ED50 in data set [1] (male mice, oral, 30 min before β-mercaptopropionic acid 70 mg/kg i.p., registered 15 minutes after, read-out: ED50) is 273 mg/kg. Further, the “% of failures” value stood at 20% in data set [2] (setting [5]) and 100% in data set [2] (setting [8]).
For the molecule `CCCC(CCC)CCCC(N)=O` [5-n-propyl-octanamide, 5-n-Propyl-octanamide], the “% of failures” value in data set [2] (setting [5]) is 0%; in data set [2] (setting [8]), 50%.
Consider `CCCC(CCC)CC(N)=O` [3-n-propyl-hexanamide, 3-n-Propyl-hexanamide], for which the “% of failures” value in data set [2] (setting [5]) is 30%; in data set [2] (setting [6]), 10%.
